Data taken from patent US20240066136A1, “MODIFIED PROTEINS AND PROTEIN DEGRADERS” (Cullgen (Shanghai), Inc., priority 2020, published 2024).
Read-outs that look alike come from different tables or passages of the source.

Assays:
HCC1937 = experiment: Cell viability assay (CellTiter-Glo); type: cell-based; conditions: Homo sapiens, 120 h; HCC1937, 5 days
Procedure: (§1) A variety of cancer cell lines were treated with Palbociclib or selected heterobifunctional compounds for 5 days at indicated concentrations in FIG. 12.
(§2) Cell Culture. LNCaP (clone FGC), Calu-1, MDA-MB-468, MDA-MB-453, NCI-H358, HCC1937, BT-549, HCT116, A375, SK-MEL-28, SK-N-SH, MIA PaCa-2, HS 578T, HCC827, MIA PaCa-2, and other cells were cultured at 37° C. with 5% CO2 in DMEM or RPMI 1640 Medium supplemented with 10% fetal bovine serum. Cells were authenticated using the short tandem repeat (STR) assays. Mycoplasma test results were negative.
(§3) Cell viability assay. Cells were seeded at a density of 5000 cells per well in 96-well assay plates and treated with test compounds following a 11-point 3-fold serial dilution for 3-5 days. Three days later, cell viability was determined using the CellTiter-Glo Assay Kit according to the manufacturer's instructions. The dose-response curves were determined and IC50 values were calculated using the GraphPad Prism software following a nonlinear regression (least squares fit) method.

MDAMB-468 = experiment: Cell viability assay (CellTiter-Glo); type: cell-based; conditions: Homo sapiens, MDA-MB-468, 120 h; MDAMB-468, 5 days
Procedure: as §1, §2, §3

A375 = experiment: Cell viability assay (CellTiter-Glo); type: cell-based; conditions: Homo sapiens, A-375, 120 h; A375, 5 days
Procedure: as §1, §2, §3

SK-MEL-28 = experiment: Cell viability assay (CellTiter-Glo); type: cell-based; conditions: Homo sapiens, 120 h; SK-MEL-28, 5 days
Procedure: as §1, §2, §3

BT-549 = experiment: Cell viability assay (CellTiter-Glo); type: cell-based; conditions: Homo sapiens, 120 h; BT-549, 5 days
Procedure: as §1, §2, §3

SK-N-SH = experiment: Cell viability assay (CellTiter-Glo); type: cell-based; conditions: Homo sapiens, 120 h, 5 days
Procedure: as §1, §2, §3

Hs 578T = experiment: Cell viability assay (CellTiter-Glo); type: cell-based; conditions: Homo sapiens, 120 h, 5 days
Procedure: as §1, §2, §3

NCI-H358 = experiment: Cell viability assay (CellTiter-Glo); type: cell-based; conditions: Homo sapiens, 120 h; NCI-H358, 5 days
Procedure: as §1, §2, §3

HCC827 = experiment: Cell viability assay (CellTiter-Glo); type: cell-based; conditions: Homo sapiens, 120 h; HCC827, 5 days
Procedure: as §1, §2, §3

HCT116 = experiment: Cell viability assay (CellTiter-Glo); type: cell-based; conditions: Homo sapiens, HCT-116, 120 h; HCT116, 5 days
Procedure: as §1, §2, §3

CDK4 = CDK4 (Homo sapiens (Human), UniProt P11802); experiment: Immunoblot of CDK4 protein in Calu-1 cells; type: cell-based; conditions: indicated concentrations, 16 hours, immunoblot
Sequence of CDK4 (P11802 whole entry): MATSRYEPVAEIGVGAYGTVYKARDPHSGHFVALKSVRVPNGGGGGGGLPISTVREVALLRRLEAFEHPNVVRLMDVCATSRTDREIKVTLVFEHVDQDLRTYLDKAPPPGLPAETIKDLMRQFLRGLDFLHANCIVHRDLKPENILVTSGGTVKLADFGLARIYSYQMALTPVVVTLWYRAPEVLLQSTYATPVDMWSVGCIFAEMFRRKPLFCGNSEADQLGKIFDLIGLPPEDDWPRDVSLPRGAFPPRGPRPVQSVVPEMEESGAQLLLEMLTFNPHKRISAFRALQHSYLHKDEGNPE
Procedure: Additional heterobifunctional compounds were designed and tested for their ability to target and degrade another two target proteins, CDK4 and CDK6. Calu-1 cells that express CDK4/6 proteins were treated with heterobifunctional compounds disclosed herein (D-44 to D-49) at indicated concentrations for 16 hours. Cells were collected, lysed and subject to immunoblotting using an antibody specific to CDK4, CDK6 or phosphorylated Rb proteins. Tubulin was included as the loading control. DMSO treatment was used as the negative control. […] In addition, Calu-1 cells were treated with 1 μM D-48 or D-49 for an indicated period of time. Subsequently, changes in CDK4 and CDK6 protein levels were measured by immunoblotting. […] These experiments highlight the ability of DDB1 binder derived heterobifunctional compounds to degrade multiple different target proteins, including but not limited to epigenetic target proteins, such as CBP and p300, and kinases, such as CDK4 and CDK6.

MIA PaCa-2 = experiment: Cell viability assay (CellTiter-Glo); type: cell-based; conditions: Homo sapiens, 120 h; MIA PaCa-2, 5 days
Procedure: (§4) Calu-1, MDA-MB-453 or MIA PaCa-2 cancer cells were treated with Palbociclib or selected heterobifunctional compounds for 5 days at indicated concentrations following a 2-fold serial dilution.
as §1, §2, §3

MDAMB-453 = experiment: Cell viability assay (CellTiter-Glo); type: cell-based; conditions: Homo sapiens, MDA-MB-453, 120 h; MDAMB-453, 5 days
Procedure: as §4, §1, §2, §3

Calu-1 = experiment: Cell viability assay (CellTiter-Glo); type: cell-based; conditions: Homo sapiens, 120 h; Calu-1, 5 days
Procedure: as §4, §1, §2, §3

[1] = tested on: Calu-1, MDA-MB-453, and MIA PaCa-2 cell lines; experiment: Cell viability after 5 days of treatment; type: cell-based; conditions: variety of different cell types
Text: FIG. 12 and Table 8 include cell viability data after treatment with heterobifunctional compound D-128, D129, or D-130. […] The compounds may be effective in multiple cell types.

Human DDB1 = Human DDB1 (Homo sapiens (Human), UniProt Q16531); experiment: Surface plasmon resonance (SPR) binding assay to immobilized His-DDB1; conditions: SPR
Sequence of Human DDB1 (Q16531 whole entry): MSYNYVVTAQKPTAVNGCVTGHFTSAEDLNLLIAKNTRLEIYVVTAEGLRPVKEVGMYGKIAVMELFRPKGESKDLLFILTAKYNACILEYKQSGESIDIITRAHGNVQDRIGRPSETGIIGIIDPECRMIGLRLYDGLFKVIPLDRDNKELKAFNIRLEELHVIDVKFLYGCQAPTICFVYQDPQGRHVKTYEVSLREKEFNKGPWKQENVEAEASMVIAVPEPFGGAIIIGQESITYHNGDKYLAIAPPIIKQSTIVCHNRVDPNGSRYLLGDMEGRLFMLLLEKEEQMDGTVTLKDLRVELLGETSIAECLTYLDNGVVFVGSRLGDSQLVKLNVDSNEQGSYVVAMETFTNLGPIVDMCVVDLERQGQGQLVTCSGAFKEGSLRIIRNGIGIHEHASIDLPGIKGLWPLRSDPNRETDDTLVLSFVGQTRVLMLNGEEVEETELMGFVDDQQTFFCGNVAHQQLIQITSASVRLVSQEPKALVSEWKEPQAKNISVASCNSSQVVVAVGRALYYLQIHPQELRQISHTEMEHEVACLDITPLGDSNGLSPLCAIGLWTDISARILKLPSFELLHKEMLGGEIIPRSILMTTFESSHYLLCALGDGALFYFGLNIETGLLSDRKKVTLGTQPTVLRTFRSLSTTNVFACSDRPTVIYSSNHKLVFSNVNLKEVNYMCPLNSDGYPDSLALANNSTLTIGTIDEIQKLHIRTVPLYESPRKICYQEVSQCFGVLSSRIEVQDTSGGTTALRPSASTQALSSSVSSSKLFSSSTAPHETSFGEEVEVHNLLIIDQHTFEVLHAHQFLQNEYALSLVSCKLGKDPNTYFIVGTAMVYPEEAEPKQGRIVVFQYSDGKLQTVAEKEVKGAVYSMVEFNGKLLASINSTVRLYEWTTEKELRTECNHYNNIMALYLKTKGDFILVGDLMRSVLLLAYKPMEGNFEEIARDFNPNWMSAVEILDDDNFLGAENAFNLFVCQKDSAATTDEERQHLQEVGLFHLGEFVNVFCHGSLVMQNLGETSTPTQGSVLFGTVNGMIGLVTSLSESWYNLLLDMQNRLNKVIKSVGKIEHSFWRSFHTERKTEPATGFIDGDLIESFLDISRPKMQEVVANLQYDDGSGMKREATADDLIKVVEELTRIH
Summary of the method: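 Baculovirus-expressed His-DDB1 (High5 cells) amine-coupled to 11,000–13,000 RU on a CM5 chip; compounds injected in multi-cycle format without regeneration at 25° C in HBS-EP pH 7.4 (120 s association/dissociation). Double-referenced, solvent-corrected data fit to steady-state affinity model for KD.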

P300 [2] = molecular target: T1, P300 (Homo sapiens (Human), UniProt Q09472); experiment: Immunoblot of P300 in Calu-1 cells with co-administered proteasome, neddylation or DDB1-ligand competitor; type: cell-based
T1 sequence (Q09472 whole entry): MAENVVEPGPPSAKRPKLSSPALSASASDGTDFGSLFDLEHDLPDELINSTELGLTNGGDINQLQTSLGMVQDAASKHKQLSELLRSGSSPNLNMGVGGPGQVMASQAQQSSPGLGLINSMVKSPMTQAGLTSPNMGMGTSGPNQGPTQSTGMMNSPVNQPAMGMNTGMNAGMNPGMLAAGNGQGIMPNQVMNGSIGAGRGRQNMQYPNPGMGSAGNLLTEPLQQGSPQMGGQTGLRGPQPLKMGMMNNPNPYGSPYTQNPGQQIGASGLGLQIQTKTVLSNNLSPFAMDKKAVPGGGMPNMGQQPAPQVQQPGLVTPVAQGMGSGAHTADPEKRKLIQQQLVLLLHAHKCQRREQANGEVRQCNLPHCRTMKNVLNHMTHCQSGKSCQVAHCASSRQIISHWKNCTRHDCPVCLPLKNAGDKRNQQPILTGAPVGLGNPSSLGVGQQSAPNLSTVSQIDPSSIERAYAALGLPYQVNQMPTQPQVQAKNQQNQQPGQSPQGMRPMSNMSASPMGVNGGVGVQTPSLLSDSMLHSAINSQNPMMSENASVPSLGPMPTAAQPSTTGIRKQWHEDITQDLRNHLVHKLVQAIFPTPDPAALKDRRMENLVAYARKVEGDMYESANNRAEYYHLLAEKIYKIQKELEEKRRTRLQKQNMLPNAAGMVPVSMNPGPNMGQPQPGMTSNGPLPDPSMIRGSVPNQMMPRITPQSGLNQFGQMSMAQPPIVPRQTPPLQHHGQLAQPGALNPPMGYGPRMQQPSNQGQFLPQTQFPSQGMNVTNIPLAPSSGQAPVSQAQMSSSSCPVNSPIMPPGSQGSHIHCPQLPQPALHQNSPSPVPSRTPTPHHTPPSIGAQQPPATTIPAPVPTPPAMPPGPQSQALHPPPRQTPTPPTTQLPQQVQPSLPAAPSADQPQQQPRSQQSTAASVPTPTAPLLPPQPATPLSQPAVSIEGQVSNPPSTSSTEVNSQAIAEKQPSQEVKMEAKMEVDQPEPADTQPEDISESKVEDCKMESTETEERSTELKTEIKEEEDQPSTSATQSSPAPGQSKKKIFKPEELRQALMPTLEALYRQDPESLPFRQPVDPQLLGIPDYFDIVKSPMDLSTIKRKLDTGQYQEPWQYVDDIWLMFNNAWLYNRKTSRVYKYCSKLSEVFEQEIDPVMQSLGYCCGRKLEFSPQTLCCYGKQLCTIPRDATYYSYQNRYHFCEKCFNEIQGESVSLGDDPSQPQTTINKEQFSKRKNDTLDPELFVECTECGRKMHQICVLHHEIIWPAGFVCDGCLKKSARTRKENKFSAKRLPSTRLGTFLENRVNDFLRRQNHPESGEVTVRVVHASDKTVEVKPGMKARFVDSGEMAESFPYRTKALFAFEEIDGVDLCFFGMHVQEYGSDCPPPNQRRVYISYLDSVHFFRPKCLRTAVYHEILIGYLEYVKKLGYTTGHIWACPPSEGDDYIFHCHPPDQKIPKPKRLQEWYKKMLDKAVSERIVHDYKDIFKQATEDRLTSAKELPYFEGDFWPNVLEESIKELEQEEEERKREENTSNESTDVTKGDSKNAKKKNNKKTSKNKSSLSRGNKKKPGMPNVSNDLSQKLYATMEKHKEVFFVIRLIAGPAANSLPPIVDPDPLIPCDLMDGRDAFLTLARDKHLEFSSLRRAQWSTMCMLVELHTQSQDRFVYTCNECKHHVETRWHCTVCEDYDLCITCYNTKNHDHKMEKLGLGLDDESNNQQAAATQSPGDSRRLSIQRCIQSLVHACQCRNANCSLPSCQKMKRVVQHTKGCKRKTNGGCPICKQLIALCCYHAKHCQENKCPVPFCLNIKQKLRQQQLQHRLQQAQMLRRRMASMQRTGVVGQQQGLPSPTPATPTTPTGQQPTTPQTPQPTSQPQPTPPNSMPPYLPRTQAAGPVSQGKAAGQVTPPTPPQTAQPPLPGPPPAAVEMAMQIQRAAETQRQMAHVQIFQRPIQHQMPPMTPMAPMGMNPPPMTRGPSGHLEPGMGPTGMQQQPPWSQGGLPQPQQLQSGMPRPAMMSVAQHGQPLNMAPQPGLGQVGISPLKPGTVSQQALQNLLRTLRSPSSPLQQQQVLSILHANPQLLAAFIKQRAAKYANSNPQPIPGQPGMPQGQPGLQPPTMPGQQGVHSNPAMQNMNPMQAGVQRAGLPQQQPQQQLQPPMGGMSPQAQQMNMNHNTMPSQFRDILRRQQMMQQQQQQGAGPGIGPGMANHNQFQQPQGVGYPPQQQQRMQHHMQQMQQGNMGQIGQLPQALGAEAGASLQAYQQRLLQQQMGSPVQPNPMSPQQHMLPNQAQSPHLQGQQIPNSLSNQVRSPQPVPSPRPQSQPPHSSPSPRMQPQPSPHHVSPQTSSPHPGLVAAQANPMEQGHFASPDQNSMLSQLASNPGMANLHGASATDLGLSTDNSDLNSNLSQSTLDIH
Text: The heterobifunctional compound-mediated p300 and CBP degradation was dependent on the ubiquitin-proteasome system and cullin E3 ligase. […] The binding with DDB1 also played a role in the heterobifunctional compounds ability to induce degradation of P300 and CBP proteins.

CBP = CBP (Homo sapiens (Human), UniProt Q92793); experiment: Immunoblot of CBP protein in LNCaP cells after compound treatment; type: cell-based
Procedure: (§5) Experiments were performed to see if heterobifunctional compounds as described herein could degrade target proteins. Specific exemplary heterobifunctional compounds were characterized in LNCaP and Calu-1 cells. LNCaP cells that express P300/CBP proteins were treated with heterobifunctional compounds disclosed herein (D-2, D-13, or D-7) at indicated concentrations for 8 hours. Cells were collected, lysed and subject to immunoblotting using an antibody specific to P300 or CBP proteins. Vinculin was included as the loading control. DMSO treatment was used as the negative control. […] In addition, LNCaP cells were treated with 500 nM of D-2, or D-13 for indicated period of time. Subsequently, changes in P300 and CBP protein levels were measured by immunoblotting.

P300 [3] = molecular target: T1, P300; experiment: Immunoblot of P300 protein in LNCaP cells after compound treatment; type: cell-based
Procedure: as §5

[4] = DDB1 binding moieties with linkers and/or target protein binding moiety, read-out: Binding (Kd)
[5] = indicated concentrations, 8 hours, immunoblot
[6] = steady state affinity model, 25° C., read-out: Binding (DDB1 binder activities, Kd)

Compound | IC50 (HCC1937) | IC50 (MDAMB-468) | IC50 (A375) | IC50 (SK-MEL-28) | IC50 (BT-549) | IC50 (SK-N-SH) | IC50 (Hs 578T) | IC50 (NCI-H358) | IC50 (HCC827) | IC50 (HCT116) | IC50 (MIA PaCa-2) | IC50 (MDAMB-453) | IC50 (Calu-1) | reduction of cell viability compared to palbociclib [1] | Kd (Human DDB1; [4]) | other results
CC(=O)c1c(C)c2cnc(Nc3ccc(N4CCNCC4)cn3)nc2n(C2CCCC2)c1=O [palbociclib, reference compound] | > 10000 nM | > 10 µM | 2000 to 10000 nM | 2000 to 10000 nM | > 10000 nM | > 10000 nM | 2000 to 10000 nM | > 10000 nM | > 10000 nM | > 10000 nM | 2000 to 10000 nM | > 10000 nM | > 10000 nM |  |  | CDK4 protein levels (CDK4): didn't have a significant effect
CC(=O)c1c(C)c2cnc(Nc3ccc(N4CCN(CC(=O)NCCOCCOCCOCCOCCOCCOCCNc5ccc(C(=O)Nc6ncc([N+](=O)[O-])s6)c(C)c5)CC4)cn3)nc2n(C2CCCC2)c1=O [D-130, 4-((1-(4-(6-((6-Acetyl-8-cyclopentyl-5-methyl-7-oxo-7,8-dihydropyrido[2,3-d]pyrimidin-2-yl)amino)pyridin-3-yl)piperazin-1-yl)-2-oxo-6,9,12,15,18,21-hexaoxa-3-azatricosan-23-yl)amino)-2-methyl-N-(5-nitrothiazol-2-yl)benzamide] | < 2000 nM | 2 to 10 µM | 2000 to 10000 nM | < 2000 nM | < 2000 nM | < 2000 nM | < 2000 nM | < 2000 nM | < 2000 nM | < 2000 nM | < 2000 nM | < 2000 nM | < 2000 nM | more effective at lower doses than palbociclib |  | 
CC(=O)c1c(C)c2cnc(Nc3ccc(N4CCN(CC(=O)NCCOCCOCCOCCOCCNc5ccc(C(=O)Nc6ncc([N+](=O)[O-])s6)c(C)c5)CC4)cn3)nc2n(C2CCCC2)c1=O [D-128, 4-((1-(4-(6-((6-Acetyl-8-cyclopentyl-5-methyl-7-oxo-7,8-dihydropyrido[2,3-d]pyrimidin-2-yl)amino)pyridin-3-yl)piperazin-1-yl)-2-oxo-6,9,12,15-tetraoxa-3-azaheptadecan-17-yl)amino)-2-methyl-N-(5-nitrothiazol-2-yl)benzamide] | < 2000 nM | 2 to 10 µM | < 2000 nM | < 2000 nM | < 2000 nM | < 2000 nM | < 2000 nM | < 2000 nM | < 2000 nM | < 2000 nM | < 2000 nM | < 2000 nM | < 2000 nM | more effective at lower doses than palbociclib |  | 
CC(=O)c1c(C)c2cnc(Nc3ccc(N4CCN(CC(=O)NCCOCCOCCOCCOCCOCCNc5ccc(C(=O)Nc6ncc([N+](=O)[O-])s6)c(C)c5)CC4)cn3)nc2n(C2CCCC2)c1=O [D-129, 4-((1-(4-(6-((6-Acetyl-8-cyclopentyl-5-methyl-7-oxo-7,8-dihydropyrido[2,3-d]pyrimidin-2-yl)amino)pyridin-3-yl)piperazin-1-yl)-2-oxo-6,9,12,15,18-pentaoxa-3-azaicosan-20-yl)amino)-2-methyl-N-(5-nitrothiazol-2-yl)benzamide] | < 2000 nM | 2 to 10 µM | < 2000 nM | < 2000 nM | < 2000 nM | < 2000 nM | < 2000 nM | < 2000 nM | < 2000 nM | < 2000 nM | < 2000 nM | < 2000 nM | < 2000 nM | more effective at lower doses than palbociclib |  | 
CC(=O)Nc1cc(NCCCCN)ccc1C(=O)Nc1nc(C)c([N+](=O)[O-])s1 [BL-11, 2-Acetamido-4-((4-aminobutyl)amino)-N-(4-methyl-5-nitrothiazol-2-yl)benzamide] |  |  |  |  |  |  |  |  |  |  |  |  |  |  | 20 to 100 µM | CDK4 protein levels (CDK4): didn't have a significant effect
CC(=O)Nc1cc(NCCCCNC(=O)CN2CCC(n3nc(N4CCCc5cc(-c6cnn(C)c6)c(C(F)F)cc54)c4c3CCN(C(C)=O)C4)CC2)ccc1C(=O)Nc1ccc([N+](=O)[O-])s1 [D-13, 2-Acetamido-4-((4-(2-(4-(5-acetyl-3-(7-(difluoromethyl)-6-(1-methyl-1H-pyrazol-4-yl)-3,4-dihydroquinolin-1 (2H)-yl)-4,5,6,7-tetrahydro-1H-pyrazolo[4,3-c]pyridin-1-yl)piperidin-1-yl)acetamido)butyl)amino)-N-(5-nitrothiophen-2-yl)benzamide] |  |  |  |  |  |  |  |  |  |  |  |  |  |  | 20 to 100 µM | compound-induced degradation under co-administration of MG-132 or bortezomib (BTZ), or MLN4924 (P300 [2]): compromised; compound-mediated degradation under co-administration with excess DDB1 ligand BL-11 (P300 [2]): partially neutralized; time at which significant degradation of CBP was detected (CBP; 500 nM, time course): 2 to 4 h; CBP protein levels (CBP; [5]): significantly decreased in a concentration-dependent manner; time at which significant degradation of P300 was detected (P300 [3]; 500 nM, time course): 2 to 4 h; P300 protein levels (P300 [3]; [5]): significantly decreased in a concentration-dependent manner
CC(=O)Nc1cc(NCCCCCCCNC(=O)C[C@@H]2N=C(c3ccc(Cl)cc3)c3c(sc(C)c3C)-n3c(C)nnc32)ccc1C(=O)Nc1nc(C)c([N+](=O)[O-])s1 [D-29, (S)-2-Acetamido-4-((7-(2-(4-(4-chlorophenyl)-2,3,9-trimethyl-6H-thieno[3,2-f][1,2,4]triazolo[4,3-a][1,4]diazepin-6-yl)acetamido)heptyl)amino)-N-(4-methyl-5-nitrothiazol-2-yl)benzamide] |  |  |  |  |  |  |  |  |  |  |  |  |  |  | 20 to 100 µM | 
Cc1cc(N2CCN(C)CC2)ccc1C(=O)Nc1ncc([N+](=O)[O-])s1 [B-163, 2-Methyl-4-(4-methylpiperazin-1-yl)-N-(5-nitrothiazol-2-yl)benzamide] |  |  |  |  |  |  |  |  |  |  |  |  |  |  |  | Kd (Human DDB1; [6]): > 100 µM
CCCCNc1ccc(C(=O)Nc2ncc(C(F)(F)F)s2)c(-c2ccccc2)c1 [B-118, 5-(Butylamino)-N-(5-(trifluoromethyl)thiazol-2-yl)-[1,1′-biphenyl]-2-carboxamide] |  |  |  |  |  |  |  |  |  |  |  |  |  |  |  | Kd (Human DDB1; [6]): 20 to 100 µM
